Our source for the IC50 values is patent US7879887B2, “α-amino acid derivatives and medicaments containing the same as an active ingredient” (Nissan Chemical Industries, Ltd., priority 2006, dated 2011).

The structures appear in SMILES notation.

Assay [1] deals with T1, recombinant human βARK1 (Homo sapiens, UniProt P25098).
T1 construct: made in house; host or cells: Sf-9 insect cells (baculovirus, pBacPAK8)
T1 sequence (P25098 1-689): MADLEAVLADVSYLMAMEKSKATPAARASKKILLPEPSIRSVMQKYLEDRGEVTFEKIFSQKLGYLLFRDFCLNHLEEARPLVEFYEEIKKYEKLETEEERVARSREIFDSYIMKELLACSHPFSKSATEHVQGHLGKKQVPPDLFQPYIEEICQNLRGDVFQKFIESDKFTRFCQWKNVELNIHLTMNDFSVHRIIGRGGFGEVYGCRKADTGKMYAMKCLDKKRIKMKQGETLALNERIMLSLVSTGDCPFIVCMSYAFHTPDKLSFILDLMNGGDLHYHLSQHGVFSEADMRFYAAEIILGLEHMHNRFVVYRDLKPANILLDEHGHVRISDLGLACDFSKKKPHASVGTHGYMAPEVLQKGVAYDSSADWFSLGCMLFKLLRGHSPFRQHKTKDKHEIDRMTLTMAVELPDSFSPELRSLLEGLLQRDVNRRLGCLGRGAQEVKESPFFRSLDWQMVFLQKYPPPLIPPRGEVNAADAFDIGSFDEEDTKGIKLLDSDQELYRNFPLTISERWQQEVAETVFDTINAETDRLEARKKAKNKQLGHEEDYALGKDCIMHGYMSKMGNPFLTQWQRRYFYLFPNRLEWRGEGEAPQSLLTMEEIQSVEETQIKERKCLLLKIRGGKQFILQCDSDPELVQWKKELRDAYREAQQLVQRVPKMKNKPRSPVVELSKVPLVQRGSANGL
Briefly: Inhibitory activity against βARK1 (33P phosphorylation of synthetic peptide). Format: biochemical. The note with it: recombinant human βARK1, 60 minutes at room temperature. The protocol: Human βARK1 was amplified by PCR based on the base sequence of human βARK1 mRNA registered in GenBank (Accession No. M80776) using a human leukocyte cDNA library (Gibco BRL Cat. No. 10421-022) as a template. The amplified cDNA fragment was inserted into a pBacPAK8 vector (Clontech) to construct a plasmid.
Recombinant human βARK1 was expressed using the BacPAK Baculovirus Expression System (Clontech, Cat. No. K1601-1). 1×10^6 Sf-9 cells were adhered to a 35 mm dish in 2.5 mL of TMN-FH Insect Medium containing 10 vol % FBS (Pharminogen, Cat. No. PM-21227M) and cultured overnight at 27° C. On the following day, the medium was removed and 500 ng of the above plasmid, BacPAK6 viral DNA cleaved with Bsu36I (5 μL) and 1.5 mL of the same medium mixed with 4 μL of Bacfectin were added followed by culturing for 5 hours, further adding 1.5 mL of medium and subsequently culturing for 5 days. […] The culture supernatant after 5 days was recovered and a plaque assay was carried out to isolate single plaques. These were then infected into Sf-9 cells and the resulting culture supernatant was designated as Passage 1 (1−3×10^11 pfu/mL). Passage 1 was added to 3×10^7 Sf-9 cells to a multiplicity of infection (MOI) of 0.1 (pfu/cell), suspension culturing was carried out for 5 days using a spinner flask, and the resulting culture supernatant was designated as Passage 2 (4×10^10 pfu/mL) and used as a viral liquid for large-volume expression.
Sf-9 cells at 3×10^9 cells/200 mL were infected by adding Passage 2 to an MOI of 100 followed by addition of medium to bring to a liquid volume of 2 L and further culturing for 3 days. After recovering the cells by centrifugation and washing three times with PBS, the cells were suspended in 100 mL of Lysis Buffer (20 mmol/L HEPES-HCl (pH 7.2), 5 mmol/L EDTA, 3 mmol/L phenylmethylsulfonyl fluoride (PMSF)). After lysing the cells by ultrasonic treatment at low temperature, the supernatant was recovered by centrifuging (45,000×g, 15 minutes) (sup1). NaCl was added to the resulting supernatant to a final concentration of 250 mmol/L followed by ultracentrifugation (300,000×g, 60 minutes) and using the subsequent supernatant as a crude cell extract (sup2).
Purification was carried out with reference to the literature (Benovic, J. L., Methods Enzymol. 1991; 200: 351-362; Kim, C. M. et al., Receptor 1993; 3: 39-55; Sohlemann, P. et al., FEBS Letters 1993; 324: 59-62). The crude cell extract was accurately brought to a volume of 400 mL with Buffer C (20 mmol/L HEPES-HCl (pH 7.2), 5 mmol/L EDTA, 0.02 vol % Triton X-100) followed by loading onto a 50 mL SP-Sepharose FF (Amersham Pharmacia Biotech) column equilibrated with Buffer C. […] ETA was carried out on each fraction using anti-GRK2 antibody (Santa-Cruz Cat. No. SC-562) and the positive fractions were collected (GRK2=βARK1). This was then diluted three-fold with Buffer C and loaded on a 5 mL HiTrap Heparin column (Amersham Pharmacia Biotech) column equilibrated with Buffer C. After washing the column with Wash Buffer (100 mmol/L NaCl, Buffer C), the column was eluted with an NaCl concentration gradient (100 to 600 mmol/L NaCl for 100 minutes, flow rate: 1 mL/min). The positive fractions as determined by ETA were collected and stored in a freezer at −80° C.
A synthetic peptide having an amino acid sequence of biotinated-[…] was used in accordance with a previous report (Chen, C. Y. et al., J. Biol. Chem. 1993; 268: 7825-7831). This synthetic peptide can also be synthesized with reference to known synthesis methods (for example, Chen, C. Y. et al., J. Biol. Chem. 1993; 268: 7825-7831, Biochemistry 1991; 30: 5118-5125). 2 μl of a DMSO solution in which the test compound was diluted to as to be […] the final concentration was dispensed into a 96-well plate (round bottom) (Falcon 351190) (final concentration: 4 vol % DMSO). […]

Assay [2] addresses CDK2/Cyclin E complex (Homo sapiens, UniProt P24941). Briefly: In vitro kinase assay, CDK2/Cyclin E complex. The note with it: recombinant protein (Upstate); read-out: CDK2/cyclinE IC50. Format: biochemical. The protocol: (§1) Inhibitory activity against Aurora A, CDK1/Cyclin B complex, CDK2/Cyclin E complex and CDK3/Cyclin E complex were measured by in vitro kinase assay using recombinant proteins.

Assay [3] has as its target T2, CDK3/Cyclin E complex (Homo sapiens, UniProt Q00526).
T2 construct: purchased Upstate Inc. 14-487
As to the kind of experiment: In vitro kinase assay, CDK3/Cyclin E complex. Format: biochemical. To be noted: recombinant protein (Upstate); read-out: CDK3/cyclinE IC50. How it is done: as §1

For assay [4], the system named is colon carcinoma cell line SW620. As to the kind of experiment: Cell proliferation inhibitory activity, SW620. Format: cell-based, human. The note with it: Homo sapiens, SW-620, 96 h, cells counted 4 days later with Cell Counting Kit-8. An outline of the steps:
(§2)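 Read-out: Cell Counting Kit-8 cell counts taken 4 days after cells in medium were added to graded test-substance concentrations. Incubation was at 37° C under 5% CO2. IC50 values were based on vehicle wells set to 0% inhibition and wells lacking compound and cells set to 100%.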

The test system of assay [5] is pancreatic cancer cell line MIAPaCa-2. Briefly: Cell proliferation inhibitory activity, MIAPaCa-2. The assay is classed as cell-based. The note with it: Homo sapiens, MIA PaCa-2, 96 h; cells counted 4 days later, Cell Counting Kit-8. How it is done: Evaluations were carried out using colon carcinoma cell line SW620 (Cat. No. CCL-227), lung carcinoma cell line NCI-H460 (Cat. No. HTB-177), prostate cancer cell line DU 145 (Cat. No. HTB-81), breast cancer cell line MDA-MB-231 (Cat. No. HTB26) and leukemia cell line KG-1a (Cat. No. CCL-246.1) purchased from ATCC, pancreatic cancer cell line MIAPaCa-2 (Cat. No. CRL-1420) purchased from Dainippon Pharmaceutical, and ovarian cancer cell line IGROV1 received from the Netherland Cancer Institute. The cells were cultured under the conditions recommended by the supplier for each cell line, or with respect to IGROV1, according to the method described in Cancer Res. 59: 4559-4563, 1999. Cells suspended in media were added to solutions containing the test substances at various concentrations followed by culturing in a 5% CO2 incubator at 37° C. The numbers of cells were counted 4 days later with the Cell Counting Kit-8. IC50 values were calculated by assigning measured values in the case of not containing a test substance to an inhibition of 0%, and assigning measured values in the case of not containing a test substance or cells to an inhibition of 100%.

For assay [6], the system named is prostate cancer cell line DU 145. Briefly: Cell proliferation inhibitory activity, DU 145. Format: cell-based, human. To be noted: Homo sapiens, 96 h, cells counted 4 days later with Cell Counting Kit-8. An outline of the steps: as §2
The subject of assay [7] is breast cancer cell line MDA-MB-231. Briefly: Cell proliferation inhibitory activity, MDA-MB-231. The assay is classed as cell-based. The note with it: Homo sapiens, 96 h, cells counted 4 days later with Cell Counting Kit-8. In outline:
as §2

Assay [8] has as its system ovarian cancer cell line IGROV1. As to the kind of experiment: Cell proliferation inhibitory activity, IGROV1. The assay is classed as cell-based. The note with it: Homo sapiens, IGROV-1, 96 h, cells counted 4 days later with Cell Counting Kit-8. In outline: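 Cells were exposed to serial concentrations of test substance at 37° C in 5% CO2 for 4 days, then counted with Cell Counting Kit-8. IC50 was derived with substance-free wells set as 0% inhibition and wells lacking both substance and cells as 100%.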

In assay [9] the test system is leukemia cell line KG-1a. As to the kind of experiment: Cell proliferation inhibitory activity, KG-1a. The assay is classed as cell-based. To be noted: Homo sapiens, 96 h, cells counted 4 days later with Cell Counting Kit-8. In outline:
as §2

Assay [10] relates to lung carcinoma cell line NCI-H460. As to the kind of experiment: Cell proliferation inhibitory activity, NCI-H460. To be noted: Homo sapiens, 96 h, cells counted 4 days later with Cell Counting Kit-8. The assay is classed as cell-based. In outline:
as §2

T2 sequence (Q00526 whole entry): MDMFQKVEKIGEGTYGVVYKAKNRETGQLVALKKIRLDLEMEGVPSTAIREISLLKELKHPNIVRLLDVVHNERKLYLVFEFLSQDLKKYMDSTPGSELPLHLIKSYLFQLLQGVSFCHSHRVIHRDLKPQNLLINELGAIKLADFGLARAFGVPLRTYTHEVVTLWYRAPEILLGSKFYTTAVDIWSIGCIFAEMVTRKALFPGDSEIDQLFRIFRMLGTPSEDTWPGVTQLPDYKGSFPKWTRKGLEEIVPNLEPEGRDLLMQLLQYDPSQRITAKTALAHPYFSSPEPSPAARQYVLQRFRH
T2 sequence (P24864 whole entry partner): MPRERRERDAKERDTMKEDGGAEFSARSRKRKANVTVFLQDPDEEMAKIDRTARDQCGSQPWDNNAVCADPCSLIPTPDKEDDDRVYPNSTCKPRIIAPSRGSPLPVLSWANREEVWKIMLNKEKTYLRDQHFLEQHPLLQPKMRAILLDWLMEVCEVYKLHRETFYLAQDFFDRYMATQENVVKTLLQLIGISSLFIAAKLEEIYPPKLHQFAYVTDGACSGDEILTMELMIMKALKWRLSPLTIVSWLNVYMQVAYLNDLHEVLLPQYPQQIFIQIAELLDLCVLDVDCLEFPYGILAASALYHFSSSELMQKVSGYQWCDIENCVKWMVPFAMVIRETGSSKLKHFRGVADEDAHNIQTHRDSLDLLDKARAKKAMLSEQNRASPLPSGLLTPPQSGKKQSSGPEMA

As to `CC(Nc1ccc(Cl)cc1)C(=O)Nc1nc2ccc3[nH]ncc3c2s1` (stereo not shown) [compound 24], the IC50 in [1] is 8 nM; in [2], 50 nM; in assay [3], 75 nM; in assay [4], 900 nM; in [5] it was 4800 nM; in assay [6] it was 3200 nM. Moreover, the IC50 was 3800 nM in [7], 4600 nM in assay [8] and under 100 nM in [9].
In the case of `CCC(=O)Nc1cc(NC(C)(C)C(=O)Nc2nc3c(C(F)(F)F)cc4[nH]ncc4c3s2)ccc1F` [compound 76], the IC50 in assay [1] amounted to 9.3 nM; in [2], 294 nM; in [3], 124 nM; in assay [4], 900 nM; in [5], 4900 nM; in [6] it was 1800 nM. Besides, the IC50 in assay [10] turned out to be 1500 nM; in assay [7] it was 4600 nM; in [8], 2700 nM; in assay [9], 300 nM.
